From patent US20240139207A1, “METHODS FOR TREATING PULMONARY HYPERTENSION” (United Therapeutics Corporation, priority 2022, published 2024)

What was measured:
[1] = system: Pulmonary arterial hypertension patients; conditions: cited from earlier work
[2] = system: patients with pulmonary arterial hypertension; assay: Phase 4 open-label 16-week study: safety and tolerability, prostanoid-related adverse events; assay type: in vivo, human; conditions: for most bothersome AE: during the phase of the labelled form; for participants who received acetaminophen for prostacyclin-related headache / participants who received loperamide for prostacyclin-related diarrhea / participants who received ondansetron for prostacyclin-related nausea/vomiting: per-protocol population (n=29), while on the labelled form
Method: Safety and tolerability were assessed at each scheduled visit and in between visits as needed throughout the duration of the study. Tolerability measures of interest included incidence of all adverse events (AEs) and prostanoid-related AEs including headache, diarrhea, nausea, vomiting, flushing, jaw pain and extremity pain. […] Prostanoid-related events captured by the survey were only recorded if the event was unusual with respect to intensity, frequency, or duration compared to symptoms in the patient's medical history. Patient compliance with taking oral treprostinil was assessed by performing study drug accountability at each scheduled study visit. The primary endpoint and all efficacy endpoints were analyzed using the per-protocol population, which included all patients without major protocol deviations unless otherwise specified. The exact (Clopper-Pearson) 95% confidence interval was calculated for the primary endpoint. […] For continuous variables, descriptive statistics are reported as median (interquartile range, IQR or range) or mean (±standard deviation, SD). For categorical variables, descriptive statistics include frequency and percentage of patients in each category. Changes from baseline to Week 16 for continuous variables were analyzed using Wilcoxon signed rank test. The change in FC from baseline to Week 16 was analyzed using McNemar's test. The p-values from these tests were derived for descriptive purposes and not part of a formal hypothesis testing framework.

[3] = system: patients with pulmonary arterial hypertension; assay: Phase 4 open-label 16-week study: echocardiography parameters; assay type: in vivo, human
Description: (§1) Based on the 2015 ESC/ERS Guidelines, specific hemodynamic inclusion criteria included a mean pulmonary arterial pressure ≥25 mmHg, pulmonary artery wedge pressure or left ventricular end-diastolic pressure ≤15 mmHg, and pulmonary vascular resistance >3 Wood units, in the absence of unrepaired congenital heart disease. Other key inclusion criteria were World Health Organization functional class (FC) II or III, 6-minute walk distance (6MWD)≥250 m, and a REVEAL 2.0 risk score ≤9 (Benza et al. 2021, DOI: https://doi.org/10.1016/j.chest.2020.08.2069). Patients could be receiving up to two oral PAH background therapies if taken at a stable dose for ≥30 days prior to baseline. As this study focused on the addition of a new therapy rather than the replacement of one therapy by another therapy, participants were eligible regardless of the number of pulmonary arterial hypertension background therapies (0, 1, or 2) they were receiving at baseline. […] Baseline assessments were collected up to 14 days prior to initiation of parenteral treprostinil, and included hemodynamics via echocardiogram and RHC, FC, N-terminal-pro brain natriuretic peptide (NT-proBNP), 6MWD, and medication history. Of note, historical RHC data could be used for baseline assessments if performed up to 180 days prior to initiating parenteral treprostinil. Echocardiograms were uploaded and stored in a central repository and evaluated by an independent central reader in accordance with the American Society of Echocardiography Guidelines (Bossone et al., DOI: 10.1016/j.echo.2012.10.009).
(§2) Once patients reached at least 20 ng/kg/min and were deemed suitable for transition based on physician assessment, they were transitioned at Week 2,4, or 8 to oral treprostinil via cross-titration in an inpatient or outpatient setting over 1-21 days. All participants still receiving parenteral treprostinil at Week 8 began transitioning to oral treprostinil regardless of their parenteral treprostinil dose unless deemed unsuitable for transition by their clinician. Before transition, 6MWD, WHO FC, NT-proBNP, and echocardiography parameters were assessed.
The primary endpoint was the percentage of patients who achieved an oral treprostinil TDD of at least 12 mg (0.171 mg/kg for patients <70 kg) at Week 16. Secondary endpoints included change from baseline to Week 16 in risk strata and clinical parameters, where baseline values were collected within 14 days prior to parenteral treprostinil initiation. Changes in risk strata for FC, NT-proBNP, 6MWD, and right atrial (RA) area were assessed using the 2015 ESC/ERS Guidelines, which categorizes risk for each determinant as low, intermediate, and high (Galiè et al., 2016). Clinical parameters of interest included FC, NT-proBNP, 6MWD, echocardiography parameters, REVEAL Lite 2 score (Benza et al., 2021), and Borg Dyspnea Score (Borg, 1982, DOI: https://doi.org/10.1249/00005768-198205000-00012). The REVEAL Lite 2 score includes clinical parameters to determine the risk status (low, intermediate, and high) for pulmonary arterial hypertension. The Borg Dyspnea Score ranges from 0 to 10, where 0 indicates no dyspnea and 10 indicates very, very heavy (almost maximal) dyspnea. Patient-reported outcomes were assessed using the emPHasis-10 quality of life questionnaire (Yorke et al., 2014, DOI: 10.1183/09031936.00127113) and the Pulmonary Arterial Hypertension Symptom Scale (PAHSS) (Matura et al., 2015, DOI: https://doi.org/10.1016/j.apnr.2014.04.001). The Treatment Satisfaction Questionnaire for Medication (TSQM) (Atkinson et al., 2004, DOI: https://doi.org/10.1186/1477-7525-2-12) was used to measure patient satisfaction with their medication over the last two to three weeks; higher scores indicate greater satisfaction. EmPHasis-10 scores can range from 0 to 50, where lower scores indicate better quality of life. […]

[4] = system: patients with pulmonary arterial hypertension; assay: Phase 4 open-label 16-week study: clinical parameters, risk stratification, patient-reported outcomes; assay type: in vivo, human
Description: The secondary endpoints of this study included measurements in: changes in prostanoid adverse events (AEs), echocardiograms, change in 6-minute walk distance (6MWD), change in Borg dyspnea score, change in World Health Organization (WHO) functional class (FC), change in serum N-terminal pro-brain natriuretic peptide (NT-proBNP) levels, impact of pulmonary hypertension on a person's life (health-related quality of life), and treatment satisfaction. Specifically, this study sought to measure the percentage of subjects that improved in each of the following individual four clinical parameters at Week 16 (6MWD, NT-proBNP, WHO FC, right atrial area) to a lower risk stratum, as defined by the 2015 ESC/ERS guidelines (Gailè et al., DOI: 10.1183/13993003.01032-2015), compared to baseline measurements. An additional endpoint was determining the percentage of subjects that meet each of the following four individual clinical parameters at Week 16 in the low risk category, as defined by 2015 ESC/ERS guidelines: 6MWD>440 meters, […].
as §1, §2
The primary endpoint was the percentage of patients who achieved an oral treprostinil TDD of at least 12 mg (0.171 mg/kg for patients <70 kg) at Week 16. Secondary endpoints included change from baseline to Week 16 in risk strata and clinical parameters, where baseline values were collected within 14 days prior to parenteral treprostinil initiation. Changes in risk strata for FC, NT-proBNP, 6MWD, and right atrial (RA) area were assessed using the 2015 ESC/ERS Guidelines, which categorizes risk for each determinant as low, intermediate, and high (Galiè et al., 2016). Clinical parameters of interest included FC, NT-proBNP, 6MWD, echocardiography parameters, REVEAL Lite 2 score (Benza et al., 2021), and Borg Dyspnea Score (Borg, 1982, DOI: https://doi.org/10.1249/00005768-198205000-00012). […]

[5] = system: Pulmonary hypertension patients; conditions: cited from earlier work
[6] = transition visit, per-protocol population
[7] = Parenteral Treprostinil Phase (Before Transition), n = 35
[8] = 2015 ESC/ERS risk strata, baseline to Week 16
[9] = Oral Treprostinil Phase (After Transition), n = 32

O=C(O)COC[C@H]1CC[C@H](COC(=O)N(c2ccccc2)c2ccc(Cl)cc2)CC1 [ralinepag]
outcomes, including pulmonary vascular resistance and 6-minute walk distances, versus placebo [1]: better outcomes

CCCCC[C@H](O)CC[C@@H]1[C@H]2Cc3cccc(OCC(=O)O)c3C[C@H]2C[C@H]1O [treprostinil]
Diarrhea, patients with AE ([2]; Transition Phase, n = 33): 17 (52) n (%)
Extremity pain, patients with AE ([2]; Transition Phase, n = 33): 10 (30) n (%)
Flushing, patients with AE ([2]; Transition Phase, n = 33): 10 (30) n (%)
Headache, patients with AE ([2]; Transition Phase, n = 33): 19 (58) n (%)
Jaw pain, patients with AE ([2]; Transition Phase, n = 33): 15 (46) n (%)
Nausea, patients with AE ([2]; Transition Phase, n = 33): 21 (64) n (%)
Vomiting, patients with AE ([2]; Transition Phase, n = 33): 5 (15) n (%)

CCCCC[C@H](O)CC[C@@H]1[C@H]2Cc3cccc(OCC(=O)O)c3C[C@H]2C[C@H]1O [parenteral treprostinil, treprostinil]
TAPSE, median (IQR) [3, 6]: 18.1 (14.8, 20.9) mm
right atrial area, median (IQR) [3, 6]: 19.3 (16.0, 26.7) cm2
patients who improved WHO FC ([4]; transition visit, 29 patients): 76%
patients who maintained WHO FC ([4]; transition visit, 29 patients): 21%
patients who worsened WHO FC ([4]; transition visit, 29 patients): 3%
6MWD, median (IQR) [4, 6]: 377 (318, 453) m
NT-proBNP, median (IQR) [4, 6]: 186 (110, 724) ng/L
Diarrhea, patients with AE [2, 7]: 18 (51) n (%)
Extremity pain, patients with AE [2, 7]: 12 (34) n (%)
Flushing, patients with AE [2, 7]: 10 (29) n (%)
Headache, patients with AE [2, 7]: 28 (80) n (%)
Jaw pain, patients with AE [2, 7]: 16 (46) n (%)
Nausea, patients with AE [2, 7]: 24 (69) n (%)
Vomiting, patients with AE [2, 7]: 13 (37) n (%)
most bothersome AE [2]: extremity pain, followed by jaw pain, headache, and diarrhea
patients reporting at least one treatment-emergent AE ([2]; patients who initiated parenteral treprostinil): All patients
participants who received acetaminophen for prostacyclin-related headache [2]: 55%
participants who received loperamide for prostacyclin-related diarrhea [2]: 34%
participants who received ondansetron for prostacyclin-related nausea/vomiting [2]: 69%

CCCCC[C@H](O)CC[C@@H]1[C@H]2Cc3cccc(OCC(=O)O)c3C[C@H]2C[C@H]1O [oral treprostinil, treprostinil]
outcomes, including 6-minute walk distances, in patients who attained higher total daily doses [5]: better outcomes
Cardiac output, median ([3]; Week 16): 4.9 L/min
Heart rate, median ([3]; Week 16): 76 bpm
LV diameter, median ([3]; Week 16): 44.9 mm
LV eccentricity, diast., median ([3]; Week 16): 1.0
LV eccentricity, syst., median ([3]; Week 16): 1.2
LVOT integral, median ([3]; Week 16): 19.5 cm
LVOT, median ([3]; Week 16): 19.6 mm
PVAT, median ([3]; Week 16): 89.9 ms
RA area, median ([3]; Week 16): 17.5 cm^2
RV MPI, median ([3]; Week 16): 0.4
RV diameter, median ([3]; Week 16): 24.8 mm
RV wall strain, median ([3]; Week 16): −19.2%
RV/LV ratio, diastole, median ([3]; Week 16): 0.6
TAPSE, median ([3]; Week 16): 19.9 mm
Cardiac output, median Change from Baseline ([3]; baseline to Week 16): +0.5 L/min
Heart rate, median Change from Baseline ([3]; baseline to Week 16): +2 bpm
LV diameter, median Change from Baseline ([3]; baseline to Week 16): +3.5 mm
LV eccentricity, diast., median Change from Baseline ([3]; baseline to Week 16): 0.0
LV eccentricity, syst., median Change from Baseline ([3]; baseline to Week 16): +0.1
LVOT integral, median Change from Baseline ([3]; baseline to Week 16): +0.9 cm
LVOT, median Change from Baseline ([3]; baseline to Week 16): +0.4 mm
PVAT, median Change from Baseline ([3]; baseline to Week 16): +4.4 ms
RA area, median Change from Baseline ([3]; baseline to Week 16): −2.9 cm^2
RV MPI, median Change from Baseline ([3]; baseline to Week 16): −0.1
RV diameter, median Change from Baseline ([3]; baseline to Week 16): −2.6 mm
RV wall strain, median Change from Baseline ([3]; baseline to Week 16): +1.3%
RV/LV ratio, diastole, median Change from Baseline ([3]; baseline to Week 16): −0.1
TAPSE, median Change from Baseline ([3]; baseline to Week 16): +1.2 mm
percentage of patients who shifted to a lower risk stratum for 6MWD [4, 8]: 15%
percentage of patients who shifted to a lower risk stratum for FC [4, 8]: 39%
percentage of patients who shifted to a lower risk stratum for NT-proBNP [4, 8]: 39%
percentage of patients who shifted to a lower risk stratum for RA area [4, 8]: 35%
6MWD, median ([4]; Week 16): 395 m
Borg Dyspnea Score, median ([4]; Week 16): 3
NT-proBNP, median ([4]; Week 16): 212 ng/L
REVEAL Lite 2 score, median ([4]; Week 16): 3.5
percentage of patients classified as FC I ([4]; Week 16 (0% at baseline)): 46%
Borg Dyspnea Score, median change from baseline ([4]; baseline to Week 16): −1
NT-proBNP, median change from baseline ([4]; baseline to Week 16): -134 ng/L
PAHSS domains ([4]; baseline to Week 16): improvements were seen in most domains
REVEAL Lite 2 score, median change from baseline ([4]; baseline to Week 16): −1
emPHasis- scores (quality of life), median change from baseline ([4]; baseline to Week 16): −3
patients improving in WHO FC ([4]; baseline to Week 16): 68%
patients worsening in WHO FC ([4]; baseline to Week 16): one
Diarrhea, patients with AE [2, 9]: 17 (53) n (%)
Extremity pain, patients with AE [2, 9]: 11 (34) n (%)
Flushing, patients with AE [2, 9]: 17 (53) n (%)
Headache, patients with AE [2, 9]: 19 (59) n (%)
Jaw pain, patients with AE [2, 9]: 16 (50) n (%)
Nausea, patients with AE [2, 9]: 21 (66) n (%)
Vomiting, patients with AE [2, 9]: 9 (28) n (%)
adverse events headache, nausea, and vomiting ([2]; after transition from Remodulin to Orenitram): tended to improve
use of all concomitant medications ([2]; after transitioning from parenteral to oral treprostinil): decreased
bothersomeness of extremity pain, jaw pain and headache ([2]; after transitioning to oral treprostinil, scale 1 bothers me a lot to 4 not at all bothersome): not at all bothersome
most bothersome AE [2]: diarrhea and nausea
participants who received acetaminophen for prostacyclin-related headache [2]: 38%
participants who received loperamide for prostacyclin-related diarrhea [2]: 38%
participants who received ondansetron for prostacyclin-related nausea/vomiting [2]: 48%
tolerability ([2]; three times daily): well tolerated
